Where two headings read alike, the source gives them in different places.
Experiments:
Format in all cases: cell-based, human
Jurkat cells [1] = test: MTT assay, cytotoxicity against Jurkat cells; conditions: MTT, 37 °C, read-out: EC50 against Jurkat (converted)
Method: (§1) Second, we conducted the quantitative evaluation of the cytotoxicity of 1, 2, and 3 against various cancer cell lines by an MTT (3-(4,5-dimethylthiazol-2-yl)-2,5-diphenyltetrazolium bromide) assay. Jurkat, MOLT-4 (these two cell lines are human T-lymphocyte leukemia cells), and U937 (human lymphoma) cells (1.5 × 10^4 cells/well) were incubated in RPMI 1640 medium containing 10% FBS (fetal bovine serum) containing 1, 2, and 3 (0–25 μM) at 37 °C for 24 h, and then treated with the MTT reagent. A549 (human alveolar adenocarcinoma) and IMR-90 (normal human fetal lung fibroblast as model of normal cells) cells (1.5 × 10^4 cells/well) were incubated in DMEM (low glucose) with 10% FBS containing 1, 2, and 3 (0–25 μM), HeLa S3 (human epithelial carcinoma cells) cells (1.5 × 10^4 cells/well) were incubated in MEM with 10% FBS containing these ligands (0–25 μM) for 24 h at 37 °C and then treated with the MTT reagent.
(§2) • (a) Cytotoxic study. Jurkat cells, MOLT-4 cells, and U937 cells (1.5 × 10^5 cells/mL per one well) were incubated in 10% FBS RPMI 1640 medium containing 1 (0–25 μM), 2 (0–25 μM) , 3, cisplatin (0–100 μM), and actinomycin D (0–10 μM) under 5% CO2 at 37 °C for 24 h on 96 well plates (Watson), 0.5% MTT (3-(4,5-dimethyl-2-thiazolyl)-2,5-diphenyl-2H-tetrazolium bromide) reagent in PBS (10 μL) was then added to the cells. After incubation at 37 °C for 4 h, a formazan lysis solution (10% SDS in 0.01 N HCl) (100 μL) was added and the resulting solution was incubated overnight under the same conditions, followed by the measurement of absorbance at 570 nm with a microplate reader (BIO-RAD).

U937 cells = test: MTT assay, cytotoxicity against U937 cells; conditions: MTT, 37 °C, treated for 24 h, read-out: EC50 against U937
Method: as §1, §2

MOLT-4 cells = test: MTT assay, cytotoxicity against MOLT-4 cells; conditions: MTT, 37 °C, read-out: EC50 against MOLT-4
Method: as §1, §2

Jurkat cells [2] = test: MTT assay in the presence of the caspase inhibitor Z-VAD-fmk; conditions: Z-VAD-fmk 15 μM 3 h
From the text: We, therefore, selected Jurkat cells to study the cell death mechanism in detail, in this work. Programmed cell death (PCD) is generally classified into several types such as apoptosis, necroptosis, paraptosis, autophagic cell death, and so on.[30]−[33] We hypothesized that 1 and 2 function as inducers of apoptosis, which is a type of PCD in cancer cells, based on the morphological change of Jurkat cells observed in Figure 1 and mechanism of chelation therapy proposed in the previous studies.[11]−[19] It is known that the caspases family are cysteine proteases that play important roles in apoptosis and necroptosis.[38] Therefore, the effect of Z-VAD-fmk, which is known as one of general caspase inhibitors, on the cell death induced by 1 and cisplatin was examined.
Figure 3 Effect of Z-VAD-fmk on the cell death in Jurkat cells induced by 1. Jurkat cells were incubated in RPMI in the presence of Z-VAD-fmk (15 μM) for 3 h and then treated with (a) 1 (1 μM) and (b) cisplatin (50 μM) for 24 h. Asterisks indicate significant difference with *(P ≤ 0.05).
To investigate the mechanism responsible for the BAPTA-AM-induced cell death in Jurkat cells, Jurkat cells were incubated with Z-VAD-fmk (15 μM) for 3 h, and then cells were treated with BAPTA-AM (12.5 μM) for 24 h followed by an MTT assay.
IMR-90 cells in DMEM medium with 10% FBS (1.5 × 10^5 cells/mL) were seeded in to 96 well plates and incubated for 24 h at 37 °C, MTT assays with poly(bpy) ligands and their metal complexes (0–100 μM), cisplatin (0–100 μM), and actinomycin D (0–10 μM) were performed following the same procedure described above. These experiments were carried out at least three times. • (b) MTT assay in the presence of a caspase inhibitor. […]

A549 cells = test: MTT assay, cytotoxicity against A549 cells; conditions: treated for 24 h
Method: as §1
(§3) HeLa S3 cells and A549 cells in MEM and DMEM medium with 10% FBS (1.5 × 10^5 cells/mL per one well) were seeded in to 96 well plates and incubated for 24 h, MTT assay of poly(bpy) ligands (0–25 μM), cisplatin (0–100 μM), and actinomycin D (0–10 μM) was performed according to the same procedure described above.

HeLa S3 cells = test: MTT assay, cytotoxicity against HeLa S3 cells; conditions: MTT, 37 °C, read-out: EC50 against HeLa S3 (converted)
Method: Second, we conducted the quantitative evaluation of the cytotoxicity of 1, 2, and 3 against various cancer cell lines by an MTT (3-(4,5-dimethylthiazol-2-yl)-2,5-diphenyltetrazolium bromide) assay. Jurkat, MOLT-4 (these two cell lines are human T-lymphocyte leukemia cells), and U937 (human lymphoma) cells (1.5 × 10^4 cells/well) were incubated in RPMI 1640 medium containing 10% FBS (fetal bovine serum) containing 1, 2, and 3 (0–25 μM) at 37 °C for 24 h, and then treated with the MTT reagent. […]
as §3

## N.N.[Cl][Pt][Cl] [cisplatin, reference compound]
Jurkat cells [1]; treated for 24 h
  EC50: 33 ± 0.2 µM
U937 cells
  EC50: 24 ± 0.9 µM
MOLT-4 cells; treated for 24 h
  EC50: 14 ± 0.3 µM
Jurkat cells [2]; then compound 50 μM for 24 h
  cell viability of Jurkat cells after preincubation with Z-VAD-fmk: considerably restored
A549 cells; 37 °C
  EC50: > 100 µM
HeLa S3 cells; treated for 24 h
  EC50: 29 ± 1.2 µM

## c1ccc(-c2ccc(OCc3cc(COc4ccc(-c5ccccn5)nc4)cc(COc4ccc(-c5ccccn5)nc4)c3)cn2)nc1 [compound 1, 1,3,5-Tris(([2,2′-Bipyridin]-5-yloxy)methyl)benzene]
Jurkat cells [1]; Homo sapiens, Jurkat, treated for 24 h
  EC50: 0.14 ± 0.13 µM
Jurkat cells [1]; Homo sapiens, Jurkat, treated for 48 h
  EC50: 0.064 µM
U937 cells; Homo sapiens, U-937
  EC50: 0.32 ± 0.22 µM
MOLT-4 cells; Homo sapiens, MOLT-4, treated for 24 h
  EC50: 0.21 ± 0.36 µM
MOLT-4 cells; Homo sapiens, MOLT-4, treated for 48 h
  EC50: < 0.1 µM
Jurkat cells [2]; then compound 1 μM for 24 h
  cell viability of Jurkat cells after preincubation with Z-VAD-fmk: considerably restored
A549 cells; Homo sapiens, A549, 37 °C
  EC50: 15 ± 0.79 µM
HeLa S3 cells; Homo sapiens, HeLa S3, treated for 24 h
  EC50: 16 ± 0.33 µM
HeLa S3 cells; Homo sapiens, HeLa S3, treated for 48 h
  EC50: 2.8 µM

Source: paper PMC10498496, “Design and Synthesis of Poly(2,2′-Bipyridyl) Ligands for Induction of Cell Death in Cancer Cells: Control of Anticancer Activity by Complexation/Decomplexation with Biorelevant Metal Cations” (Inorganic Chemistry, 2023)
